From patent publication US20080167324A1, “Thiazolymethyl and Oxazolylmethyl Heteroaryl Derivatives” (priority 2005, published 2008)

Target: benzodiazepine site of the GABAA receptor
Assay: Ligand binding assay (3H-Ro15-1788 displacement, purified rat cortical membranes)
Details: previously determined; used in the Cheng-Prusoff equation; read-out: Kd, binding dissociation constant of the radioligand

## CCOC(=O)c1ncn2c1CN(C)C(=O)c1cc(F)ccc1-2 [^3H-Ro15-1788]
  Kd: 1 nM
